# Measured values reported in patent publication US10752631B2, “Heterocyclic compounds as FGFR inhibitors” (GUANGZHOU INNOCARE PHARMA TECH CO., LTD., priority 2016, dated 2020).
# Key:
# [1] = biological target: human recombinant FGFR2 catalytic structural domain protein (amino acids 400-821) (Homo sapiens (Human), UniProt P21802); assay: FGFR2 activity inhibition test (HTRF kinase assay); type: biochemical; conditions: 50 μM ATP
# [2] = biological target: human recombinant FGFR3 catalytic structural domain protein (amino acids 399-806) (Homo sapiens (Human), UniProt P22607); assay: FGFR3 activity inhibition test (HTRF kinase assay); type: biochemical; conditions: 90 μM ATP
# human recombinant FGFR3 catalytic structural domain protein (amino acids 399-806), sequence (P22607 399-806): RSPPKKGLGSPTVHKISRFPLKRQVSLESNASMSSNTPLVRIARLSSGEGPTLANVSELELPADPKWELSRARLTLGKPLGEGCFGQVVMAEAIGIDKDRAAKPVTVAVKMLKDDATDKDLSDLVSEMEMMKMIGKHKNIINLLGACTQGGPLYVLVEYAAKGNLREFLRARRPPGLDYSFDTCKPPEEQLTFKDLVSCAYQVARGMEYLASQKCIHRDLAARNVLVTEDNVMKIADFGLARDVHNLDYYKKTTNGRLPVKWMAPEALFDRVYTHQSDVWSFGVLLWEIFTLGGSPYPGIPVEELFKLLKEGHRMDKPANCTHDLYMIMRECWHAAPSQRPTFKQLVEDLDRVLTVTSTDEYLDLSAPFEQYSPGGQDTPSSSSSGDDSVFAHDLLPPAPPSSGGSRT
# human recombinant FGFR2 catalytic structural domain protein (amino acids 400-821), sequence (P21802 400-821): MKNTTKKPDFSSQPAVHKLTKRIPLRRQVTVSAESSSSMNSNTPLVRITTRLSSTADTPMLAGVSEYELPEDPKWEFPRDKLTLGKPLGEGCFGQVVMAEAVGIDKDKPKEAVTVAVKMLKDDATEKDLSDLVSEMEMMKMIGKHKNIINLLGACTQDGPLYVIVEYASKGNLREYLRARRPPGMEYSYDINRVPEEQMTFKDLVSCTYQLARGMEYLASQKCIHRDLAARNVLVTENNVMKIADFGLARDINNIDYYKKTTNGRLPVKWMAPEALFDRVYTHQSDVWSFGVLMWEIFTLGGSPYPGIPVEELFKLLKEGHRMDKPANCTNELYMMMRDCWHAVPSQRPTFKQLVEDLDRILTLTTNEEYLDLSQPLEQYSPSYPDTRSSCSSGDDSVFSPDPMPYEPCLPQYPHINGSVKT
Structure (SMILES),IC50 [1],IC50 [2]
"C#CC(=O)N1CC[C@@H](c2nc(C#Cc3cc(OC)cc(OC)c3)c3c(N)nccn23)C1 (stereo in doubt) [Compound 8, 1-((3,5-Dimethoxyphenyl)ethynyl)-3-(1-propynoylpyrrolidin-3-yl)imidazo[1,5-a]pyrazin-8-amine]",< 50 nM,50 to 500 nM
"CC#CC(=O)N1CC[C@@H](c2nc(C#Cc3cc(OC)cc(OC)c3)c3c(N)nccn23)C1 [Compound 5, (R)-1-((3,5-Dimethoxyphenyl)ethynyl)-3-(1-butan-2-ynoylpyrrolidin-3-yl)imidazo[1,5-a]pyrazin-8-amine]",< 50 nM,< 50 nM
"C/C=C/C(=O)N1CC[C@@H](c2nc(C#Cc3cc(OC)cc(OC)c3)c3c(N)nccn23)C1 [Compound 7, (E)-1-((3,5-Dimethoxyphenyl)ethynyl)-3-(1-butan-2-enoylpyrrolidin-3-yl)imidazo[1,5-a]pyrazin-8-amine]",< 50 nM,< 50 nM

# The remaining lines, values ahead:
IC50 [1],IC50 [2],Structure (SMILES)
< 50 nM,50 to 500 nM,"CC#CC(=O)N1CCC(c2nc(C#Cc3cc(OC)cc(OC)c3)c3c(N)nccn23)C1 (centres unmarked) [Compound 9, 1-((3,5-Dimethoxyphenyl)ethynyl)-3-(1-butan-2-ynoylpyrolidin-3-yl)imidazo[1,5-a]pyrazin-8-amine]"
< 50 nM,< 50 nM,COc1cc(C#Cc2nc(C3CCN(C(=O)/C=C/CN(C)C)C3)n3ccnc(N)c23)cc(OC)c1 (centres unmarked) [Compound 10]
50 to 500 nM,50 to 500 nM,"C/C=C/C(=O)N1CC(c2nc(C#Cc3cc(OC)cc(OC)c3)c3c(N)nccn23)C1 [Compound 11, (E)-1-((3,5-Dimethoxyphenyl)ethynyl)-3-(1-but-2-enoylazacyclobutan-3-yl)imidazo[1,5-a]pyrazin-8-amine]"
50 to 500 nM,50 to 500 nM,"CC#CC(=O)N1CC(c2nc(C#Cc3cc(OC)cc(OC)c3)c3c(N)nccn23)C1 [Compound 12, 1-((3,5-Dimethoxyphenyl)ethynyl)-3-(1-but-2-ynoylazacyclobutan-3-yl)imidazo[1,5-a]pyrazin-8-amine]"
